Test system: rats
Assay: Two Generation Reproduction Toxicity Study (dietary S-ABA)
Format: in vivo
Description: Two Generation Reproduction Toxicity Study
This study was conducted to determine the potential adverse effects of the test substance on reproduction in a 2-generation study. This included determining the effects of the test substance on male and female reproductive processes, including gonadal function, estrous cyclicity, mating behavior, conception, gestation, parturition, lactation, weaning, and on growth and development of the offspring. A minimum of 1 litter was produced in each generation.
Three groups of male and female were offered S-ABA, continuously in the diet for at least 70 consecutive days prior to mating. Target tests substance concentrations were 10,000, 15,000, and 20,000 ppm for the F0 and F1 generations. A concurrent control group of 30 rats/sex was offered the basal diet continuously throughout the study. F0 animals were approximately 7 weeks of age at the initiation of test diet administration. The test diet was administered to the offspring selected to become the F1 generation following weaning. The F0 and F1 males continued to receive the test substance throughout mating and continuing through the day prior to euthanasia. The F0 and F1 females continued to receive the test substance throughout mating, gestation, and lactation, and through the day of euthanasia. For both generations (F1 and F2), 8 pups per litter (4 per sex, when possible) were selected to reduce the variability among the litters. Offspring (30/sex/group, if possible) from the pairing of the F0 animals were selected to constitute the F1 generation.
All animals were observed twice daily for appearance and behavior. Clinical observations, body weights, and food consumption were recorded at appropriate intervals for males throughout the study and for females prior to mating and during gestation and lactation. All F0 and F1 females were allowed to deliver and rear their pups until weaning on lactation day 21. Clinical observations, body weights, and sexes for F1 and F2 pups were recorded at appropriate intervals. Nonselected F1 pups and all surviving F2 pups were necropsied. Selected organs were weighed from 1 pup/sex/litter from F1 and F2 pups that were necropsied. Each surviving F0 and F1 parental animal received a complete detailed gross necropsy following the completion of weaning of the F1 and F2 pups, respectively; selected organs were weighed. Spermatogenic endpoints were recorded for all F0 and F1 males, and ovarian primordial follicle counts were recorded for all F0 and F1 females in the control and high-exposure groups and all F0 and F1 females suspected of reduced fertility. Designated tissues from all F0 and F1 parental animals were examined microscopically.

CC1=CC(=O)CC(C)(C)[C@@]1(O)/C=C/C(C)=C\C(=O)O [S-ABA, (S)-(+)-abscisic acid]
SPERM PRODUCTION RATE, mean (10,000 PPM): 10.3 MILLIONS/GRAM/DAY | Mean Live Offspring Born (per litter) (10,000 ppm): 12.3 | Offspring Born (10,000 ppm): 322 | Offspring FOUND DEAD (10,000 ppm): 4 | POSTNATAL SURVIVAL, BIRTH-4 (PRE-SELECT), mean (10,000 ppm): 98.6 % PER LITTER | POSTNATAL SURVIVAL, POSTNATAL DAY 0 (RELATIVE TO # BORN), mean (10,000 ppm): 99.7 % PER LITTER | POSTNATAL SURVIVAL, POSTNATAL DAY 0-1, mean (10,000 ppm): 100.0 % PER LITTER | POSTNATAL SURVIVAL, POSTNATAL DAY 1-4 (PRE-SELECTION), mean (10,000 ppm): 98.9 % PER LITTER | POSTNATAL SURVIVAL, POSTNATAL DAY 4 (POST-SELECT)-21, mean (10,000 ppm): 99.5 % PER LITTER | POSTNATAL SURVIVAL, POSTNATAL DAY 4 (POST-SELECTION)-7, mean (10,000 ppm): 99.5 % PER LITTER | POSTNATAL SURVIVAL, POSTNATAL DAY 7-14, mean (10,000 ppm): 100.0 % PER LITTER | POSTNATAL SURVIVAL, POSTNATAL DAY 14-21, mean (10,000 ppm): 100.0 % PER LITTER | OFFSPRING WEIGHT, mean (10,000 ppm, female, postnatal day 1): 6.6 grams | OFFSPRING WEIGHT, mean (10,000 ppm, female, postnatal day 4): 9.1 grams | OFFSPRING WEIGHT, mean (10,000 ppm, female, postnatal day 7): 14.3 grams | OFFSPRING WEIGHT, mean (10,000 ppm, female, postnatal day 14): 29.9 grams | OFFSPRING WEIGHT, mean (10,000 ppm, female, postnatal day 21): 45.5 grams | OFFSPRING WEIGHT, mean (10,000 ppm, male, postnatal day 1): 7.1 grams | OFFSPRING WEIGHT, mean (10,000 ppm, male, postnatal day 4): 9.7 grams | OFFSPRING WEIGHT, mean (10,000 ppm, male, postnatal day 7): 15.2 grams | OFFSPRING WEIGHT, mean (10,000 ppm, male, postnatal day 14): 30.9 grams | OFFSPRING WEIGHT, mean (10,000 ppm, male, postnatal day 21): 47.9 grams | offspring mortality (10,000 ppm, control 4.57%): 1.24% | SPERM PRODUCTION RATE, mean (15,000 PPM): 10.7 MILLIONS/GRAM/DAY | Mean Live Offspring Born (per litter) (15,000 ppm): 13.1 | Offspring Born (15,000 ppm): 375 | Offspring FOUND DEAD (15,000 ppm): 15 | POSTNATAL SURVIVAL, BIRTH-4 (PRE-SELECT), mean (15,000 ppm): 93.2 % PER LITTER | POSTNATAL SURVIVAL, POSTNATAL DAY 0 (RELATIVE TO # BORN), mean (15,000 ppm): 96.1 % PER LITTER | POSTNATAL SURVIVAL, POSTNATAL DAY 0-1, mean (15,000 ppm): 98.5 % PER LITTER | POSTNATAL SURVIVAL, POSTNATAL DAY 1-4 (PRE-SELECTION), mean (15,000 ppm): 98.5 % PER LITTER | POSTNATAL SURVIVAL, POSTNATAL DAY 4 (POST-SELECT)-21, mean (15,000 ppm): 98.2 % PER LITTER | POSTNATAL SURVIVAL, POSTNATAL DAY 4 (POST-SELECTION)-7, mean (15,000 ppm): 99.6 % PER LITTER | POSTNATAL SURVIVAL, POSTNATAL DAY 7-14, mean (15,000 ppm): 98.7 % PER LITTER | POSTNATAL SURVIVAL, POSTNATAL DAY 14-21, mean (15,000 ppm): 100.0 % PER LITTER | OFFSPRING WEIGHT, mean (15,000 ppm, female, postnatal day 1): 6.6 grams | OFFSPRING WEIGHT, mean (15,000 ppm, female, postnatal day 4): 8.8 grams | OFFSPRING WEIGHT, mean (15,000 ppm, female, postnatal day 7): 14.0 grams | OFFSPRING WEIGHT, mean (15,000 ppm, female, postnatal day 14): 29.8 grams | OFFSPRING WEIGHT, mean (15,000 ppm, female, postnatal day 21): 45.8 grams | OFFSPRING WEIGHT, mean (15,000 ppm, male, postnatal day 1): 6.9 grams | OFFSPRING WEIGHT, mean (15,000 ppm, male, postnatal day 4): 9.3 grams | OFFSPRING WEIGHT, mean (15,000 ppm, male, postnatal day 7): 14.7 grams | OFFSPRING WEIGHT, mean (15,000 ppm, male, postnatal day 14): 30.8 grams | OFFSPRING WEIGHT, mean (15,000 ppm, male, postnatal day 21): 47.8 grams | SPERM PRODUCTION RATE, mean (20,000 PPM): 10.5 MILLIONS/GRAM/DAY | Mean Live Offspring Born (per litter) (20,000 ppm): 12.3 | Offspring Born (20,000 ppm): 327 | Offspring FOUND DEAD (20,000 ppm): 11 | POSTNATAL SURVIVAL, BIRTH-4 (PRE-SELECT), mean (20,000 ppm): 96.8 % PER LITTER

— patent publication US8729122B2, “Pharmaceutical and nutraceutical compositions of abscisic acid” (Valent BioSciences Corporation, priority 2010, dated 2014)
